# Active and inactive are the calls of the source. The calls are words filed in the database; no cut-off is given here.
# Tested on: A6
# Test: Agonist activity at […] expressed in A6 cells assessed as increase in insulin-stimulated sodium transport at 50 uM
# Assay type: functional, cell-based
compound,measurement,value
CCCCCCCCCCCCCCCC(=O)OC[C@H](COP(=O)(O)O[C@H]1[C@H](O)[C@@H](OP(O)(O)=S)[C@H](OP(O)(O)=S)[C@@H](OP(O)(O)=S)[C@H]1O)OC(=O)CCCCCCCCCCCCCCC,Activity,Active

# — ChEMBL document CHEMBL1143860, “Synthesis and biological activity of phosphatidylinositol-3,4,5-trisphosphorothioate” (Bioorg Med Chem Lett, 2008)
